Assay results as given in ChEMBL document CHEMBL1201862, “PubChem BioAssay data set” (2004).
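Each compound was tested at five concentrations against cells in 96-well plates for 48 hours. The concentration for 50% growth inhibition is given as GI50.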 Active and inactive are the calls of the source. No stated cut-off is given here; in the data, active = GI50 up to about 1.1 µM and inactive = higher.

Columns and labels:
Experiment in all cases: growth of human tumour cells (NCI), 48 h
DLD-1 = test system: DLD-1
DMS-114 = test system: DMS-114
DMS-273 = test system: DMS-273
HOP-18 = test system: HOP-18
LXFL 529 = test system: LXFL 529
M19-MEL = test system: M19-MEL
RXF 631 = test system: RXF 631
SNB-78 = test system: SNB-78
XF498 = test system: XF498

SMILES	GI50 (DLD-1)	GI50 (DMS-114)	GI50 (DMS-273)	GI50 (HOP-18)	GI50 (LXFL 529)	GI50 (M19-MEL)	GI50 (RXF 631)	GI50 (SNB-78)	GI50 (XF498)
Cc1ccc(NC(=O)/C(=N/NC(=O)C[N+](C)(C)C)c2nc3ccccc3nc2O)cc1	> 100 µM (inactive)	> 100 µM (inactive)	> 100 µM (inactive)	> 100 µM (inactive)	> 100 µM (inactive)	> 100 µM (inactive)	> 100 µM (inactive)	> 100 µM (inactive)	–
CC(=O)OCC1OC(Sc2ccccn2)C=CC1OC(C)=O (centres undefined)	> 100 µM (inactive)	> 100 µM (inactive)	> 100 µM (inactive)	> 100 µM (inactive)	> 100 µM (inactive)	> 100 µM (inactive)	–	–	> 100 µM (inactive)
On1c(-c2ccccc2)c(-c2ccccc2N2CCCC2)c2ccccc21	> 100 µM (inactive)	47.2 µM (inactive)	> 100 µM (inactive)	> 100 µM (inactive)	–	> 100 µM (inactive)	–	> 100 µM (inactive)	> 100 µM (inactive)
COc1cc(C2C(Cl)C(=O)N2NC(=O)c2ccc(N)cc2)ccc1O (centres undefined)	29.4 µM (inactive)	–	47.5 µM (inactive)	–	16.6 µM (inactive)	55.5 µM (inactive)	–	44.2 µM (inactive)	31.3 µM (inactive)
Brc1ccc(N2C[N+](c3ccc(Br)cc3)=NC(c3ccccc3)=N2)cc1.[O-][Cl+3]([O-])([O-])[O-]	59.8 µM (inactive)	25.1 µM (inactive)	50.1 µM (inactive)	> 100 µM (inactive)	45.2 µM (inactive)	> 100 µM (inactive)	–	> 100 µM (inactive)	> 100 µM (inactive)
O=c1c(NO)c([N+](=O)[O-])cnn1-c1ccccc1	3.6 µM (inactive)	15.8 µM (inactive)	3.26 µM (inactive)	22.1 µM (inactive)	1.76 µM (inactive)	3.67 µM (inactive)	2.48 µM (inactive)	16.9 µM (inactive)	3.41 µM (inactive)
COC(=O)/C(=C/c1ccc(OC)cc1)C(C(=O)O)=C1CCCCC1	> 100 µM (inactive)	–	> 100 µM (inactive)	–	> 100 µM (inactive)	> 100 µM (inactive)	> 100 µM (inactive)	> 100 µM (inactive)	> 100 µM (inactive)
COc1cc(-c2[nH]ccc2Cl)oc1C1=C2N=C3C=C2C(C(C)C)C1CCCCCCCC3 (centres undefined)	0.975 µM (active)	0.485 µM (active)	0.589 µM (active)	0.332 µM (active)	0.515 µM (active)	0.603 µM (active)	–	2.83 µM (inactive)	1.38 µM (inactive)
O=C1C2ON3c4ccccc4C(=O)C3(c3ccccc3)C2C(=O)N1c1ccccc1 (centres undefined)	> 100 µM (inactive)	–	> 100 µM (inactive)	> 100 µM (inactive)	> 100 µM (inactive)	> 100 µM (inactive)	–	> 100 µM (inactive)	> 100 µM (inactive)
COc1ccc(OCC(=O)O)c2c1CCC(C)C2=O (centres undefined)	> 100 µM (inactive)	> 100 µM (inactive)	> 100 µM (inactive)	94.6 µM (inactive)	–	> 100 µM (inactive)	> 100 µM (inactive)	> 100 µM (inactive)	> 100 µM (inactive)
Cc1cc2c(c(C(N)=O)c1C)-c1cccc(Cl)c1C2=O	> 100 µM (inactive)	> 100 µM (inactive)	> 100 µM (inactive)	–	> 100 µM (inactive)	–	> 100 µM (inactive)	> 100 µM (inactive)	> 100 µM (inactive)
COC(=O)[C@]12CSCN1C(=O)C(C(C)=O)=NN2C(=O)[C@](OC)(c1ccccc1)C(F)(F)F	–	> 100 µM (inactive)	> 100 µM (inactive)	–	> 100 µM (inactive)	> 100 µM (inactive)	–	> 100 µM (inactive)	> 100 µM (inactive)
C=CC1=C(C)/C(=C/C2=NC(=C\c3[nH]c(CC4NC(=O)C(C)/C4=C\C)c(C)c3CCC(=O)O)/C(CC(=O)O)=C2C)NC1=O (centres undefined)	> 100 µM (inactive)	> 100 µM (inactive)	–	> 100 µM (inactive)	> 100 µM (inactive)	> 100 µM (inactive)	> 100 µM (inactive)	> 100 µM (inactive)	> 100 µM (inactive)
CN1C2(c3ccccc3)c3c(-c4ccccc4)sc(-c4ccccc4)c3C1(c1ccccc1)C1C(=O)N(c3ccccc3)C(=O)C12 (centres undefined)	> 100 µM (inactive)	> 100 µM (inactive)	> 100 µM (inactive)	> 100 µM (inactive)	> 100 µM (inactive)	> 100 µM (inactive)	> 100 µM (inactive)	> 100 µM (inactive)	> 100 µM (inactive)
C=CC1(CC)/C(=N\O)C(CC)(CC)C(=O)N1O (centres undefined)	> 100 µM (inactive)	> 100 µM (inactive)	> 100 µM (inactive)	–	> 100 µM (inactive)	> 100 µM (inactive)	–	> 100 µM (inactive)	48.9 µM (inactive)
Cc1c(-c2nnc(-c3ccccc3)o2)c(=O)n(-c2ccccc2)n1C	> 100 µM (inactive)	> 100 µM (inactive)	> 100 µM (inactive)	> 100 µM (inactive)	> 100 µM (inactive)	> 100 µM (inactive)	–	> 100 µM (inactive)	> 100 µM (inactive)
Cc1cc(N)c(C)c2c1[nH]c1ccc(O)cc12	–	> 10 µM (inactive)	> 100 µM (inactive)	> 100 µM (inactive)	–	61 µM (inactive)	–	> 100 µM (inactive)	56.4 µM (inactive)
CS(=O)(=O)c1ccc(-c2cc(-c3ccc(S(C)(=O)=O)cc3)[n+](-c3cc(-c4ccccc4)c([O-])c(-c4ccccc4)c3)c(-c3ccc(S(C)(=O)=O)cc3)c2)cc1	–	> 100 µM (inactive)	> 100 µM (inactive)	> 100 µM (inactive)	> 100 µM (inactive)	> 100 µM (inactive)	> 100 µM (inactive)	> 100 µM (inactive)	> 100 µM (inactive)
O=c1ccn([C@H]2CSC[C@@H](CO)C2)c(=O)[nH]1	> 100 µM (inactive)	> 100 µM (inactive)	> 100 µM (inactive)	> 100 µM (inactive)	> 100 µM (inactive)	> 100 µM (inactive)	> 100 µM (inactive)	> 100 µM (inactive)	–
CC(=O)O[C@H]1C(=O)[C@@]2(C)C(C(OC(=O)c3ccccc3)[C@]3(O)CC(OC(=O)C(O)C(NC(=O)c4ccc(C)cc4)c4ccccc4)C(C)=C1C3(C)C)[C@]1(OC(C)=O)CO[C@@H]1C[C@@H]2O (some centres undefined)	0.0661 µM (active)	< 0.0025 µM (active)	< 0.0025 µM (active)	–	0.00424 µM (active)	< 0.0025 µM (active)	–	4.02 µM (inactive)	< 0.0025 µM (active)
O=c1ccccc2cccc(O)c12	> 100 µM (inactive)	> 100 µM (inactive)	> 100 µM (inactive)	> 100 µM (inactive)	> 100 µM (inactive)	> 100 µM (inactive)	> 100 µM (inactive)	> 100 µM (inactive)	> 100 µM (inactive)
CN(C)c1ccc(/C=N/C23CC4CC(CC(C4)C2)C3)cc1	–	> 100 µM (inactive)	> 100 µM (inactive)	–	–	> 100 µM (inactive)	–	> 100 µM (inactive)	–
Cc1ccccc1-n1c(=S)[nH]c2c(sc(=O)n2-c2ccccc2C)c1=O	> 100 µM (inactive)	> 100 µM (inactive)	> 100 µM (inactive)	> 100 µM (inactive)	> 100 µM (inactive)	> 100 µM (inactive)	> 100 µM (inactive)	> 100 µM (inactive)	–
CC(=O)OC(C)(C)C1CCC(C)(C(O)COc2ccc(CCNC(=O)c3ccccc3)cc2)O1 (centres undefined)	31.5 µM (inactive)	12.5 µM (inactive)	33.3 µM (inactive)	> 100 µM (inactive)	25.1 µM (inactive)	37.3 µM (inactive)	–	48.3 µM (inactive)	10.5 µM (inactive)
CN1C(c2ccccc2)CC(O)CC1c1ccccc1 (centres undefined)	> 100 µM (inactive)	> 100 µM (inactive)	> 100 µM (inactive)	–	> 100 µM (inactive)	> 100 µM (inactive)	–	> 100 µM (inactive)	–
